Converted amounts (≈) assume the structure as drawn. Like-named read-outs stand apart in the source and are kept apart here.
Experiments:
[1] = tested on: Bacillus subtilis A; assay: MIC in agar; type: cell-based; conditions: read-out: MIC, concentration required to inhibit the growth
[2] = tested on: Citrobacter freundii E8; assay: MIC in agar; type: cell-based; conditions: read-out: MIC, concentration required to inhibit the growth
[3] = tested on: Klebsiella aerogenes A; assay: MIC in agar; type: cell-based; conditions: read-out: MIC, concentration required to inhibit the growth
[4] = tested on: Shigella sonnei MB 11967; assay: MIC in agar; type: cell-based; conditions: MB11967, read-out: MIC, concentration required to inhibit the growth
[5] = tested on: Staph. aureus Russell; assay: MIC in agar; type: cell-based; conditions: Staphylococcus aureus, read-out: MIC, concentration required to inhibit the growth
[6] = tested on: Staph. aureus 1517; assay: MIC in agar; type: cell-based; conditions: Staphylococcus aureus, read-out: MIC, concentration required to inhibit the growth
[7] = tested on: Staph. aureus Oxford; assay: MIC in agar; type: cell-based; conditions: Staphylococcus aureus, read-out: concentration required to inhibit the growth
[8] = tested on: Strep faecalis I; assay: MIC in agar; type: cell-based; conditions: read-out: concentration required to inhibit the growth
[9] = tested on: Strep pneumoniae; assay: MIC in agar; type: cell-based; conditions: read-out: concentration required to inhibit the growth
[10] = tested on: Strep pyogenes CN10; assay: MIC in agar; type: cell-based; conditions: read-out: concentration required to inhibit the growth
[11] = tested on: E. coli 0111; assay: MIC in agar; type: cell-based; conditions: Escherichia coli, read-out: concentration required to inhibit the growth
[12] = tested on: Salmonella typhimurium CT10; assay: MIC in agar; type: cell-based; conditions: Salmonella enterica, read-out: concentration required to inhibit the growth
[13] = tested on: Enterobacter cloacae N1; assay: MIC in agar; type: cell-based; conditions: read-out: concentration required to inhibit the growth
[14] = tested on: Serratia marcescens US20; assay: MIC in agar; type: cell-based
[15] = molecular target: β-lactamase, Proteus mirabilis C889; assay: β-lactamase inhibition I50; type: biochemical
[16] = molecular target: β-lactamase, Staphylococcus aureus Russell (Staphylococcus aureus, UniProt P00807); assay: β-lactamase inhibition I50; type: biochemical
[17] = tested on: Strep. pyogenes; assay: MIC in agar; type: cell-based; conditions: Streptococcus pyogenes, Strep. pyogenes (strain not given), read-out: concentration required to inhibit the growth
[18] = tested on: Proteus mirabilis C977; assay: MIC in agar; type: cell-based; conditions: read-out: concentration required to inhibit the growth
[19] = tested on: Proteus morganii I 580; assay: MIC in agar; type: cell-based; conditions: Morganella morganii, I580, read-out: concentration required to inhibit the growth
[20] = tested on: Proteus rettgeri WM16; assay: MIC in agar; type: cell-based; conditions: Providencia rettgeri, read-out: concentration required to inhibit the growth
[21] = molecular target: β-lactamase, Enterobacter P99 (Enterobacter cloacae, UniProt P05364); assay: β-lactamase inhibition I50; type: biochemical
[22] = molecular target: β-lactamase, Pseudomonas aeruginosa A (Pseudomonas aeruginosa, UniProt P24735); assay: β-lactamase inhibition I50; type: biochemical
[23] = molecular target: β-lactamase, Klebsiella aerogenes E70; assay: β-lactamase inhibition I50; type: biochemical
[24] = molecular target: β-lactamase, Escherichia coli JT4 (Escherichia coli, UniProt P62593); assay: β-lactamase inhibition I50; type: biochemical
[25] = molecular target: β-lactamase, Pseudomonas dalgleish (Pseudomonas aeruginosa, UniProt P16897); assay: β-lactamase inhibition I50; type: biochemical
[26] = tested on: Pseudomonas aeruginosa A; assay: MIC in agar; type: cell-based; conditions: read-out: concentration required to inhibit the growth
[27] = tested on: Proteus vulgaris WO 91; assay: MIC in agar; type: cell-based; conditions: WO91, read-out: concentration required to inhibit the growth
[28] = tested on: Klebsiella aerogenes; assay: MIC in agar; type: cell-based; conditions: Klebsiella aerogenes (strain not given), read-out: concentration required to inhibit the growth
[29] = tested on: Salmonella typhimurium; assay: MIC in agar; type: cell-based; conditions: Salmonella enterica, Salmonella typhimurium (strain not given), read-out: concentration required to inhibit the growth
[30] = Serratia marcescens US20, read-out: concentration required to inhibit the growth

β-lactamase, Staphylococcus aureus Russell, sequence (P00807 25-281): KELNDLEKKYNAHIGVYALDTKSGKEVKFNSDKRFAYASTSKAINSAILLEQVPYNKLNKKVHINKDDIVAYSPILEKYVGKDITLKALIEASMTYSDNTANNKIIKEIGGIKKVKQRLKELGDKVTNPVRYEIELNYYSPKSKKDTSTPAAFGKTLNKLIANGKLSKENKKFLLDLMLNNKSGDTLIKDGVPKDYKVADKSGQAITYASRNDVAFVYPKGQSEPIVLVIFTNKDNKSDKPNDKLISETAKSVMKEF
β-lactamase, Pseudomonas aeruginosa A, sequence (P24735 27-397): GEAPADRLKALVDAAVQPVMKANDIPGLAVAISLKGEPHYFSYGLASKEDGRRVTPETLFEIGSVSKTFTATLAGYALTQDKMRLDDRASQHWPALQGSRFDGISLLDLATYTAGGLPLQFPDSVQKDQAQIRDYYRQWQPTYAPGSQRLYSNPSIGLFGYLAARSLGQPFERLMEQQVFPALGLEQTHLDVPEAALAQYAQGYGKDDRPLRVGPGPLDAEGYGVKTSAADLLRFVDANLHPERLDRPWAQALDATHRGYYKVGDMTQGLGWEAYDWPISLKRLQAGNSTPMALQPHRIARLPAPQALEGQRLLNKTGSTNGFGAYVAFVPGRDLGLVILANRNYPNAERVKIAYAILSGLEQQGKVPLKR
β-lactamase, Enterobacter P99, sequence (P05364 21-381): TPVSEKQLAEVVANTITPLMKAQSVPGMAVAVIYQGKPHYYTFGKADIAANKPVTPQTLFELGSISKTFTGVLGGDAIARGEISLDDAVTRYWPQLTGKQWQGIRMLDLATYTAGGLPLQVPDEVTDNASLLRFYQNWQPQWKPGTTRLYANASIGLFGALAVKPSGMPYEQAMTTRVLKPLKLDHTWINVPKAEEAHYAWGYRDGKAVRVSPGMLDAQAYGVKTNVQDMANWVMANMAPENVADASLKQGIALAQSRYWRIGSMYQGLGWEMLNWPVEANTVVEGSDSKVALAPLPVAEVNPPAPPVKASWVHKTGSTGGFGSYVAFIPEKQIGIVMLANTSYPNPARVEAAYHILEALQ
β-lactamase, Escherichia coli JT4, sequence (P62593 24-286 limits assumed): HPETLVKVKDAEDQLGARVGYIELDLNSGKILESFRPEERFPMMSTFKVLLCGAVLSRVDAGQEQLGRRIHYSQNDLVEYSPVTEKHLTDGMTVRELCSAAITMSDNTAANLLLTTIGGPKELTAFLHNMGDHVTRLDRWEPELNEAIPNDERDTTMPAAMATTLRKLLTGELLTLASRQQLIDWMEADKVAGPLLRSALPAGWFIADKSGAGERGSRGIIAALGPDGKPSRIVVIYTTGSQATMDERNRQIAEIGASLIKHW
β-lactamase, Pseudomonas dalgleish, sequence (P16897 18-288): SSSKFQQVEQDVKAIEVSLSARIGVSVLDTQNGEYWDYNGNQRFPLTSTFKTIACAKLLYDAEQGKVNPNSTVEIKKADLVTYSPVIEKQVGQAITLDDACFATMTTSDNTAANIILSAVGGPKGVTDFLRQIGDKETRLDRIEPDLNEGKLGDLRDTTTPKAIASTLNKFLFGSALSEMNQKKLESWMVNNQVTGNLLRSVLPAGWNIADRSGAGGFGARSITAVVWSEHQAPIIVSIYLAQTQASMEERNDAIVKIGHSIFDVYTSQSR

Structure (SMILES)	MIC [1] [µg/mL]	MIC [2] [µg/mL]	MIC [3] [µg/mL]	MIC [4] [µg/mL]	MIC [5] [µg/mL]	MIC [6] [µg/mL]	MIC [7] [µg/mL]	MIC [11] [µg/mL]	MIC [12] [µg/mL]	MIC [13] [µg/mL]	MIC [18] [µg/mL]	further results
COC(=O)/C=C/CC1C(=O)N2C(C(=O)OCC(Cl)(Cl)Cl)=CCC12 (stereo not shown) [compound 8, 2,2,2-Trichloroethyl-6-(3-methoxycarbonyl-2-propen-1-yl)-7-oxo-1-azabicyclo[3,2,0]hept-2-ene-2-carboxylate]	20 (≈ 52.3 µM)	20 (≈ 52.3 µM)	20 (≈ 52.3 µM)	20 (≈ 52.3 µM)	≤ 2	≤ 2	≤ 2	–	–	–	–	MIC [8]: 20 µg/mL (≈ 52.3 µM); MIC [9]: 20 µg/mL (≈ 52.3 µM); MIC [10]: 20 µg/mL (≈ 52.3 µM)
COC(=O)/C=C/CC1C(=O)N2C(C(=O)OCOC(=O)C(C)(C)C)=CCC12 (stereo not shown) [compound 52, Pivaloyloxymethyl 6-(3-methoxycarbonyl-2-propen-1-yl)-7-oxo-1-azabicyclo[3,2,0]hept-2-ene-2-carboxylate]	20 (≈ 54.7 µM)	–	20 (≈ 54.7 µM)	20 (≈ 54.7 µM)	2 (≈ 5.47 µM)	2 (≈ 5.47 µM)	2 (≈ 5.47 µM)	20 (≈ 54.7 µM)	20 (≈ 54.7 µM)	–	–	–
CC(C)(O)[C@H]1C(=O)N2C(C(=O)OCc3ccccc3)=CC[C@@H]12 (relative stereo) [Example 4 cis-isomer, Benzyl 6-(2-hydroxy-2-propyl)-7-oxo-1-azabicyclo[3,2,0]hept-2-ene-2-carboxylate]	–	–	≤ 2	≤ 2	≤ 2	–	≤ 2	–	–	20 (≈ 66.4 µM)	–	MIC [14, 30]: 20 µg/mL (≈ 66.4 µM)
O=C(OCc1ccccc1)C1=CC[C@@H]2[C@H](C(O)c3ccccc3)C(=O)N12 (stereo partly shown) [compound 30, Benzyl 6-(1-hydroxy-1-phenylmethyl)-7-oxo-1-azabicyclo[3,2,0]hept-2-ene-2-carboxylate]	–	–	–	–	–	–	–	–	–	–	–	β-lactamase inhibition I50 [15]: 0.27 µg/mL; IC50 [16]: 0.149 µM
COC(=O)/C=C/CC1C(=O)N2C(C(=O)OCc3ccccc3)=CCC12 (stereo not shown) [compound 5, Benzyl 6-(3-methoxycarbonyl-2-propen-1-yl)-7-oxo-1-azabicyclo[3,2,0]hept-2-ene-2-carboxylate]	20 (≈ 58.6 µM)	20 (≈ 58.6 µM)	20 (≈ 58.6 µM)	20 (≈ 58.6 µM)	2 (≈ 5.86 µM)	2 (≈ 5.86 µM)	–	–	–	–	–	–
COC(=O)/C=C/CC1C(=O)N2C(C(=O)OCc3ccc([N+](=O)[O-])cc3)=CCC12 (stereo not shown) [53a, p-Nitrobenzyl 6-(3-methoxycarbonyl-2-propen-1-yl)-7-oxo-1-azabicyclo[3,2,0]hept-2-ene-2-carboxylate]	–	–	–	–	2.46 (≈ 6.37 µM)	–	–	–	–	–	–	MIC [9]: 7.4 µg/mL (≈ 19.2 µM); MIC [17]: 0.8 µg/mL (≈ 2.07 µM)
N#C/C=C/C[C@H]1C(=O)N2C(C(=O)OCc3ccccc3)=CC[C@@H]12 (relative stereo) [compound 56, Benzyl 6-(3-cyano-2-propen-1-yl)-7-oxo-1-azabicyclo[3,2,0]hept-2-ene-2-carboxylat]	20 (≈ 64.9 µM)	20 (≈ 64.9 µM)	20 (≈ 64.9 µM)	20 (≈ 64.9 µM)	≤ 2	≤ 2	≤ 2	20 (≈ 64.9 µM)	20 (≈ 64.9 µM)	20 (≈ 64.9 µM)	20 (≈ 64.9 µM)	MIC [14, 30]: 20 µg/mL (≈ 64.9 µM); MIC [19]: 20 µg/mL (≈ 64.9 µM); MIC [20]: 20 µg/mL (≈ 64.9 µM)
O=CCC1C(=O)N2C(C(=O)OCc3ccccc3)=CCC12 (stereo not shown) [compound 4, Benzyl 6-(2-oxoethyl)-7-oxo-1-azabicyclo[3,2,0]hept-2-ene-2-carboxylate]	–	–	–	–	–	–	–	–	–	–	–	IC50 [21]: 5.61 µM; IC50 [22]: > 140 µM; β-lactamase inhibition I50 [15]: 2.1 µg/mL; β-lactamase inhibition I50 [23]: > 40 µg/mL; IC50 [24]: < 4.21 µM; IC50 [25]: 3.51 µM; IC50 [16]: > 35.1 µM
COC(=O)/C=C/C[C@H]1C(=O)N2C(C(=O)OC3OC(=O)c4ccccc43)=CC[C@@H]12 (relative stereo) [compound 41, Phthalidyl 6-(3-methoxycarbonyl-2-propen-1-yl)-7-oxo-1-azabicyclo[3,2,0]hept-2-ene-2-carboxylate]	25 (≈ 65.2 µM)	–	50 (≈ 130 µM)	50 (≈ 130 µM)	≤ 0.8	≤ 0.8	≤ 0.8	50 (≈ 130 µM)	50 (≈ 130 µM)	–	100 (≈ 261 µM)	MIC [10]: ≤ 0.8 µg/mL
O=C(OC1OC(=O)c2ccccc21)C1=CCC2CC(=O)N12 (stereo not shown) [compound 81, Phthalidyl 7-oxo-1-azabicyclo[3,2,0]hept-2-ene-2-carboxylate]	20 (≈ 70.1 µM)	20 (≈ 70.1 µM)	20 (≈ 70.1 µM)	–	20 (≈ 70.1 µM)	–	20 (≈ 70.1 µM)	20 (≈ 70.1 µM)	20 (≈ 70.1 µM)	20 (≈ 70.1 µM)	20 (≈ 70.1 µM)	MIC ([14]; US20, Serratia marcescens VS20, read-out: concentration required to inhibit the growth): 20 µg/mL (≈ 70.1 µM); MIC [26]: 160 µg/mL (≈ 561 µM)
N#C/C=C/C[C@H]1C(=O)N2C(C(=O)OC3OC(=O)c4ccccc43)=CC[C@@H]12 (relative stereo) [compound 61, Phthalidyl 6-(3-cyano-2-propen-1-yl)-7-oxo-1-azabicyclo[3,2,0]hept-2-ene-2-carboxylat]	–	7.3 (≈ 20.8 µM)	–	22 (≈ 62.8 µM)	2.4 (≈ 6.85 µM)	–	2.4 (≈ 6.85 µM)	7.3 (≈ 20.8 µM)	–	22 (≈ 62.8 µM)	66.6 (≈ 190 µM)	MIC [14, 30]: 22 µg/mL (≈ 62.8 µM); MIC [19]: 22 µg/mL (≈ 62.8 µM); MIC [20]: 22 µg/mL (≈ 62.8 µM); MIC [27]: 66.6 µg/mL (≈ 190 µM); MIC [28]: 7.3 µg/mL (≈ 20.8 µM); MIC [29]: 7 µg/mL (≈ 20 µM)
O=C(OCc1ccccc1)C1=CC[C@H]2[C@@H](C3(O)CCCCC3)C(=O)N12 (relative stereo) [compound 34, Benzyl 6-(1-hydroxycyclohex-1-yl)-7-oxo-1-azabicyclo[3,2,0]hept-2-ene-2-carboxylate]	–	–	–	–	–	–	–	–	–	–	–	IC50 [21]: 14.6 µM; IC50 [22]: 4.1 µM; IC50 [24]: 46.9 µM; IC50 [16]: 13.5 µM

Reference: patent US4401595A, “4-Allyl azetidinone intermediate for β-lactam antibacterial agents” (Beecham Group Limited, priority 1977, dated 1983)
